Measured values from PubChem BioAssay (NCI).
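Where inhibition never reached the appropriate level, the endpoint shown equals the highest concentration tested. Otherwise, values were interpolated linearly from a five-concentration, 48-hour dose response in 96-well plates. GI50 marks 50% less growth. The concentration for full growth arrest is given as TGI.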

What was measured:
Test in all cases: growth of human tumour cells (NCI), 48 h
786-0 renal = system: 786-0 renal
A498 renal = system: A498 renal
A549 NSCLC = system: A549 NSCLC
ACHN renal = system: ACHN renal
BT-549 breast = system: BT-549 breast
CAKI-1 renal = system: CAKI-1 renal
CCRF-CEM leukemia = system: CCRF-CEM leukemia
COLO 205 colon = system: COLO 205 colon
DU-145 prostate = system: DU-145 prostate
EKVX NSCLC = system: EKVX NSCLC
HCC-2998 colon = system: HCC-2998 colon
HCT-116 colon = system: HCT-116 colon
HCT-15 colon = system: HCT-15 colon
HL-60(TB) leukemia = system: HL-60(TB) leukemia
HOP-62 NSCLC = system: HOP-62 NSCLC
HOP-92 NSCLC = system: HOP-92 NSCLC
HS 578T breast = system: HS 578T breast
HT29 colon = system: HT29 colon
IGROV1 ovarian = system: IGROV1 ovarian
K-562 leukemia = system: K-562 leukemia
KM12 colon = system: KM12 colon
LOX IMVI melanoma = system: LOX IMVI melanoma
M14 melanoma = system: M14 melanoma
MALME-3M melanoma = system: MALME-3M melanoma
MCF7 breast = system: MCF7 breast
MDA-MB-231 breast = system: MDA-MB-231 breast
MDA-MB-435 = system: MDA-MB-435
MOLT-4 leukemia = system: MOLT-4 leukemia
NCI-H226 lung = system: NCI-H226 lung
NCI-H23 lung = system: NCI-H23 lung
NCI-H460 lung = system: NCI-H460 lung
NCI-H522 lung = system: NCI-H522 lung
NCI/ADR-RES ovarian = system: NCI/ADR-RES ovarian
OVCAR-3 ovarian = system: OVCAR-3 ovarian
OVCAR-4 ovarian = system: OVCAR-4 ovarian
OVCAR-5 ovarian = system: OVCAR-5 ovarian
OVCAR-8 ovarian = system: OVCAR-8 ovarian
PC-3 prostate = system: PC-3 prostate
RPMI-8226 leukemia = system: RPMI-8226 leukemia
RXF 393 renal = system: RXF 393 renal
SF-268 CNS = system: SF-268 CNS
SF-295 CNS = system: SF-295 CNS
SF-539 CNS = system: SF-539 CNS
SK-MEL-2 melanoma = system: SK-MEL-2 melanoma
SK-MEL-28 melanoma = system: SK-MEL-28 melanoma
SK-MEL-5 melanoma = system: SK-MEL-5 melanoma
SK-OV-3 ovarian = system: SK-OV-3 ovarian
SN12C renal = system: SN12C renal
SNB-19 CNS = system: SNB-19 CNS
SNB-75 CNS = system: SNB-75 CNS
SR leukemia = system: SR leukemia
SW-620 colon = system: SW-620 colon
T-47D breast = system: T-47D breast
TK-10 renal = system: TK-10 renal
U251 CNS = system: U251 CNS
UACC-257 melanoma = system: UACC-257 melanoma
UACC-62 melanoma = system: UACC-62 melanoma
UO-31 renal = system: UO-31 renal

COc1ccc(/C=N/NC(=O)c2[nH]c3ccc(Br)cc3c2-c2ccccc2)o1
GI50 (786-0 renal): 353 nM
TGI (786-0 renal): 13700 nM
GI50 (A498 renal): 16700 nM
TGI (A498 renal): 37300 nM
GI50 (A549 NSCLC): 251 nM
TGI (A549 NSCLC): > 49900 nM
GI50 (ACHN renal): 203 nM
TGI (ACHN renal): 20700 nM
GI50 (BT-549 breast): 177 nM
TGI (BT-549 breast): 667 nM
GI50 (CAKI-1 renal): 295 nM
TGI (CAKI-1 renal): 21000 nM
GI50 (CCRF-CEM leukemia): 136 nM
TGI (CCRF-CEM leukemia): > 55200 nM
GI50 (COLO 205 colon): 196 nM
TGI (COLO 205 colon): 377 nM
GI50 (DU-145 prostate): 307 nM
TGI (DU-145 prostate): 14300 nM
GI50 (EKVX NSCLC): 968 nM
TGI (EKVX NSCLC): 29400 nM
GI50 (HCC-2998 colon): 382 nM
TGI (HCC-2998 colon): 14300 nM
GI50 (HCT-116 colon): 108 nM
TGI (HCT-116 colon): 1100 nM
GI50 (HCT-15 colon): 219 nM
TGI (HCT-15 colon): 3040 nM
GI50 (HL-60(TB) leukemia): 74.8 nM
TGI (HL-60(TB) leukemia): 265 nM
GI50 (HOP-62 NSCLC): 467 nM
TGI (HOP-62 NSCLC): 20800 nM
GI50 (HOP-92 NSCLC): 953 nM
TGI (HOP-92 NSCLC): 10100 nM
GI50 (HS 578T breast): 570 nM
TGI (HS 578T breast): 21000 nM
GI50 (HT29 colon): 66.6 nM
GI50 (IGROV1 ovarian): 314 nM
TGI (IGROV1 ovarian): 16700 nM
GI50 (K-562 leukemia): 55 nM
TGI (K-562 leukemia): > 72200 nM
GI50 (KM12 colon): 311 nM
TGI (KM12 colon): 4840 nM
GI50 (LOX IMVI melanoma): 35.4 nM
TGI (LOX IMVI melanoma): 12300 nM
GI50 (M14 melanoma): 299 nM
TGI (M14 melanoma): 15300 nM
GI50 (MALME-3M melanoma): 202 nM
TGI (MALME-3M melanoma): 17700 nM
GI50 (MCF7 breast): 90.7 nM
TGI (MCF7 breast): 11100 nM
GI50 (MDA-MB-231 breast): 148 nM
TGI (MDA-MB-231 breast): 2190 nM
GI50 (MDA-MB-435): 112 nM
TGI (MDA-MB-435): 303 nM
GI50 (MOLT-4 leukemia): 59.9 nM
TGI (MOLT-4 leukemia): 21900 nM
GI50 (NCI-H226 lung): 276 nM
TGI (NCI-H226 lung): 7950 nM
GI50 (NCI-H23 lung): 300 nM
TGI (NCI-H23 lung): 9900 nM
GI50 (NCI-H460 lung): 248 nM
TGI (NCI-H460 lung): 1590 nM
GI50 (NCI-H522 lung): 21.6 nM
TGI (NCI-H522 lung): 59.2 nM
GI50 (NCI/ADR-RES ovarian): 53.3 nM
TGI (NCI/ADR-RES ovarian): 2590 nM
GI50 (OVCAR-3 ovarian): 284 nM
TGI (OVCAR-3 ovarian): 2840 nM
GI50 (OVCAR-4 ovarian): 265 nM
TGI (OVCAR-4 ovarian): 29300 nM
GI50 (OVCAR-5 ovarian): 161 nM
TGI (OVCAR-5 ovarian): 17600 nM
GI50 (OVCAR-8 ovarian): 143 nM
TGI (OVCAR-8 ovarian): 1570 nM
GI50 (PC-3 prostate): 386 nM
TGI (PC-3 prostate): > 34400 nM
GI50 (RPMI-8226 leukemia): 161 nM
TGI (RPMI-8226 leukemia): > 32500 nM
GI50 (RXF 393 renal): 1100 nM
TGI (RXF 393 renal): 17800 nM
GI50 (SF-268 CNS): 500 nM
TGI (SF-268 CNS): 27800 nM
GI50 (SF-295 CNS): 165 nM
TGI (SF-295 CNS): 2880 nM
GI50 (SF-539 CNS): 72 nM
TGI (SF-539 CNS): 237 nM
GI50 (SK-MEL-2 melanoma): 134 nM
TGI (SK-MEL-2 melanoma): 9220 nM
GI50 (SK-MEL-28 melanoma): 418 nM
TGI (SK-MEL-28 melanoma): 15800 nM
GI50 (SK-MEL-5 melanoma): 163 nM
TGI (SK-MEL-5 melanoma): 391 nM
GI50 (SK-OV-3 ovarian): 455 nM
TGI (SK-OV-3 ovarian): 40200 nM
GI50 (SN12C renal): 125 nM
TGI (SN12C renal): 8310 nM
GI50 (SNB-19 CNS): 323 nM
TGI (SNB-19 CNS): 19700 nM
GI50 (SNB-75 CNS): 165 nM
TGI (SNB-75 CNS): 3530 nM
GI50 (SR leukemia): 114 nM
TGI (SR leukemia): 19100 nM
GI50 (SW-620 colon): 196 nM
TGI (SW-620 colon): 28300 nM
GI50 (T-47D breast): 2950 nM
TGI (T-47D breast): 20600 nM
GI50 (TK-10 renal): 2260 nM
TGI (TK-10 renal): 37100 nM
GI50 (U251 CNS): 309 nM
TGI (U251 CNS): 11000 nM
GI50 (UACC-257 melanoma): 258 nM
TGI (UACC-257 melanoma): 23200 nM
GI50 (UACC-62 melanoma): 122 nM
TGI (UACC-62 melanoma): 13900 nM
GI50 (UO-31 renal): 470 nM
TGI (UO-31 renal): 21500 nM
